Measurements published in EP4168403B1 (priority 2020, dated 2021).

Legend:
Type in all cases: biochemical
[1] = target: T1, human recombinant butyrylcholinesterase (hBuChE; EC 3.1.1.8) (Homo sapiens, UniProt P06276); test: Cholinesterase inhibition in vitro assay (modified Ellman's method), BuChE; details: pH 7.4, 37 °C, mean ± SEM, read-out: BChE (IC50 µM)
T1 construct: purchased Sigma-Aldrich (Prague, Czech Republic)
Procedure: The AChE and BuChE inhibitory activity of the tested compounds was determined using a modified Ellman's method^31, 32.Human red-blood cell acetylcholinesterase (hAChE; EC 3.1.1.7), and human recombinant butyrylcholinesterase (hBuChE; EC 3.1.1.8), 5,5'-dithiobis(2-nitrobenzoic acid) (Ellman's reagent, DTNB), phosphate buffer (PB, pH 7.4), acetylthiocholine (ATC), and butyrylthiocholine (BTC), were purchased from Sigma-Aldrich (Prague, Czech Republic). Nunc polystyrene 96-well microplates with flat-bottom shape (ThermoFisher Scientific, USA) were used for the measurement and all the assay were carried out in 0.1 M KH2PO4/K2HPO4 buffer, pH 7.4. Enzyme solution was prepared at activity 2.0 units/mL in 2 mL aliquots. The assay mixture (100 µL) consisted of 40 µL of 0.1 M phosphate buffer (pH 7.4), 20 µL of 0.01 M DTNB, 10 µL of enzyme, and 20 µL of 0.01 M substrate (ATC iodide solution). Tested compounds were dissolved first in methanol (BIGI 23 in DMSO) and then further diluted by assay buffer to the final concentration. […]. […] Enzyme with the inhibitor was preincubated for 5 min in the assay mixture and then the reaction was started by addition of 20 µL of substrate (ATC for AChE, BTC for BuChE). The enzyme activity was determined by measuring the increase in absorbance at 412 nm at 37 °C at 2 min intervals using a Multi-mode microplate reader Synergy 2 (Vermont, USA). Each concentration was assayed in triplicate. The obtained data were used to compute the percentage inhibition (I; Equation 1): I = 1−(ΔAi)/(ΔA0) [%] [formula] ΔAi indicates the absorbance change provided by cholinesterase exposed to AChE inhibitors and ΔA0 indicates absorbance change caused by intact cholinesterase (phosphate buffer was used instead of AChE inhibitor solution). […] Calculations were performed using software Microsoft Excel (Redmont, WA, USA) and GraphPad Prism version 5.02 for Windows, GraphPad Software, San Diego, CA, USA.

Aβ1-42 = target: T2, Aβ1-42 (Homo sapiens, UniProt P05067); test: Inhibition of Aβ1-42 self-aggregation (ThT fluorescence); details: [Inhibitor]=[Aβ1-42]=50 µM, mean ± SEM
T2 construct: pre-treated Aβ1-42 samples (Bachem AG, Switzerland); purchased Bachem AG, Switzerland
T2 sequence (P05067 672-713 limits assumed): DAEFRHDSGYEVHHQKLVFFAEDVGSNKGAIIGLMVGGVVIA
Procedure: Experiments were performed by incubating the peptide in 10 mM phosphate buffer (pH=8.0) containing 10 mM NaCl, at 30 °C for 24 h (final Aβ concentration=50 µM with and without inhibitor (50 µM). The inhibitor was dissolved in methanol and diluted in the assay buffer. Blanks containing inhibitor and ThT were also prepared and evaluated to account for quenching and fluorescence properties. To quantify amyloid fibril formation, the ThT fluorescence method was used^36, 37. After incubation, samples were diluted to a final volume of 2.0 mL with […] glycine-NaOH buffer (pH= 8.5) containing 1.5 µM ThT. A 300-seconds-time scan of fluorescence intensity was carried out (λexc=446 nm; λem=490 nm), and values at plateau were averaged after subtracting the background fluorescence of 1.5 µM ThT solution. The fluorescence intensities were compared and the % inhibition was calculated.
The inhibitory activity of compounds BIGI-3e, BIGI-3h and BIGI-3k against the spontaneous aggregation of Aβ1-42 was determined in vitro using a thioflavin T (ThT)-based fluorometric assay^35. […].

human AChE = target: T3, human AChE (Homo sapiens, UniProt P22303); test: Kinetic study of inhibition of AChE hydrolysis (Lineweaver-Burk, nonlinear regression); details: for Ki: substrate acetylthiocholine; for type of inhibition: sum-of-squares F-test, p<0.05
T3 construct: purchased Sigma-Aldrich (Prague, Czech Republic); host or cells: human red blood cells
T3 sequence (P22303 32-617 isoform P22303-2 limits assumed): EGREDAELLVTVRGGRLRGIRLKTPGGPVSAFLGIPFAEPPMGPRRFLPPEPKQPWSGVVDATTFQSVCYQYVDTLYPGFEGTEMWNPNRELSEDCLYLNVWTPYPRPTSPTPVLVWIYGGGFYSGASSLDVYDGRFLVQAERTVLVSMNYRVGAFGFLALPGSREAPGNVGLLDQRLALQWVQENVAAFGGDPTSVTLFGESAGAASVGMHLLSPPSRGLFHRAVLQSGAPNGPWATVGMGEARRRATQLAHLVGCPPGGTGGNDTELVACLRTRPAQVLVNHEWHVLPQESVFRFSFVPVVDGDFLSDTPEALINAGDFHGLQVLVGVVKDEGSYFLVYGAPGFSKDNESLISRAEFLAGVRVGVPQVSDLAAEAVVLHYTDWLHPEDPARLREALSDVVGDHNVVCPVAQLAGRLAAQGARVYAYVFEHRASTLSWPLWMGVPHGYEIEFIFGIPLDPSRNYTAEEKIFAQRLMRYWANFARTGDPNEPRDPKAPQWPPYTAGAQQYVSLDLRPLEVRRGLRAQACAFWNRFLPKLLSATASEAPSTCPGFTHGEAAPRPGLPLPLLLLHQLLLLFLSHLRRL
Procedure: To obtain insight into the interactions of BIGI-3h and BIGI-3e with human AChE, a kinetic study was conducted. Substrate concentration - enzyme velocity curves were recorded in the presence of different concentrations of the tested compounds. […] The type of inhibition and corresponding inhibition constants (Ki and Ki') were determined by the nonlinear regression analysis of data. Results for each type model of inhibition (competitive, non-competitive, uncompetitive and mixed) were compared with sum-of-squares F-test. […] BIGI-3h and BIGI-3e bind to both free AChE and AChE-substrate complex, affecting the binding of substrate in the active site of enzyme, interacting with its allosteric peripheral anionic site. Interaction with this site causes conformational changes of the enzyme resulting also in changes of its active site. […]. Measured values are consistent with the IC50 values for AChE. It appears that both tested compounds tend to bind free AChE more than enzyme-substrate complex.

[2] = binding to AChE-substrate complex

T1 sequence (P06276 29-602): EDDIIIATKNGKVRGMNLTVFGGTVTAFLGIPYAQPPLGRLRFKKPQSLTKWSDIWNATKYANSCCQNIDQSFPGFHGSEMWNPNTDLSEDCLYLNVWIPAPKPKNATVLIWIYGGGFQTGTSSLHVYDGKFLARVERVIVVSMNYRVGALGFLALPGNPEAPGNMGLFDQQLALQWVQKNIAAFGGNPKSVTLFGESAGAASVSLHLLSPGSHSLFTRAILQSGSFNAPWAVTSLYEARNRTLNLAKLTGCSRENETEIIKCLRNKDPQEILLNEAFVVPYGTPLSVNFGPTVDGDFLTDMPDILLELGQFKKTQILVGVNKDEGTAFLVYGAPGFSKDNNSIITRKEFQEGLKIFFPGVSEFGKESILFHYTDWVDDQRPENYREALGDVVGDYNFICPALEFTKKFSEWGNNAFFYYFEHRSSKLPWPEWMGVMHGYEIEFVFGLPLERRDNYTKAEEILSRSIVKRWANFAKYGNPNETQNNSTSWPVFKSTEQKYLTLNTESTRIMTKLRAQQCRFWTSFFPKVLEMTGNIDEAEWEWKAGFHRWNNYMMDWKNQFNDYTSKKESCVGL

| Compound | IC50 [1] | inhibition at 50 µM (Aβ1-42) | % inhibition Aβ1-42 aggregation (Aβ1-42; 50 µM) | Ki (human AChE; [2]) | Ki (human AChE; binding to free AChE) | type of inhibition (human AChE) |
| --- | --- | --- | --- | --- | --- | --- |
| CCOC(=O)C1=C(C)N(CCC2CCN(Cc3ccccc3)CC2)C(=O)NC1c1coc2c(Cl)cc(Cl)cc2c1=O (racemic) [BIGI-3h, ethyl 1-(2-(1-benzylpiperidin-4-yl)ethyl)-4-(6,8-dichloro-4-oxo-4H-chromen-3-yl)-6-methyl-2-oxo-1,2,3,4-tetrahydropyrimidine-5-carboxylate] | 17.3 ± 0.9 µM | 66 ± 0.7% | 63.6 ± 1.3% | 77.6 ± 16.4 nM | 21.5 ± 5.19 nM | mixed non-competitive |
| CCOC(=O)C1=C(C)N(CCCC2CCN(Cc3ccccc3)CC2)C(=O)NC1c1coc2cc(CC)ccc2c1=O (stereo not shown) [BIGI-3k, ethyl 1-(3-(1-benzylpiperidin-4-yl)propyl)-4-(7-ethyl-4-oxo-4H-chromen-3-yl)-6-methyl-2-oxo-1,2,3,4-tetrahydropyrimidine-5-carboxylate] | 2.95 µM | 63.8 ± 0.8% | – | – | – | – |
| CCOC(=O)C1=C(C)N(CCC2CCN(Cc3ccccc3)CC2)C(=O)NC1c1coc2ccc(Br)cc2c1=O (stereo not shown) [BIGI-3e, ethyl 1-(2-(1-benzylpiperidin-4-yl)ethyl)-4-(6-bromo-4-oxo-4H-chromen-3-yl)-6-methyl-2-oxo-1,2,3,4-tetrahydropyrimidine-5-carboxylate] | 8.4 ± 0.34 µM | 63 ± 2.1% | – | 89.5 ± 12.5 nM | 51 ± 12.7 nM | mixed non-competitive |
